Test results from patent US12691069B2, “Synthetic glycolipids and glycoliposome compositions : suitable for cargo delivery to the central nervous system” (KORANEX CAPITAL, priority 2022, dated 2026).
Marks after values point to notes of the source that are not given here.

Columns and labels:
[1] = Dynamic light scattering (DLS) of MGs; type: physicochemical; conditions: At 3.2 mg/mL THF; for Diameter (nm): injected in nanopure water
Procedure: The self-assembly of the glycoliposomes into vesicles and liposomes involved the injection method of their solution in a water miscible solvent such as ethanol or tetrahydrofuran (THF) into water or buffer. […] The resulting assemblies were first analyzed by dynamic light scattering (DLS) for size, polydispersity (PDI), and stability in time. For liposome size determination, solutions of the glycolipids (3.5 mg) in THF (1.1 mL) were then diluted in distilled water (2.2 mL) to provide final concentrations of 1.06 mg/mL. Particle size distributions were measured in water using a Zetasizer® Nano S90 from Malvern Instruments (UK) equipped with 4 mW He—Ne laser 633 nm and avalanche photodiode positioned at 90° to the beam and temperature-controlled cuvette holder. Instrument parameters were determined automatically along with measurement times. Experiments were performed in triplicate at 25° C.
Different solutions of 12a (C8), 12c (C12), 12d (C14), 12e (C16), 22c (C12), 22d (C14), 22e (C16) in THF and EtOH were prepared from 0.5 mg/mL to 10 mg/mL. 100 μL of these preparations were injected in a constant 2 mL of nanopure water followed by 5 seconds of vortexing, and analyzed by DLS, to determine the diameter size of the MGs, as shown in Table 2.

[2] = In vivo Dynantin distribution after intranasal treatment; conditions: intranasal Dynantin 2 μg, 20 minutes
[3] = tested on: HeLa cells; assay: Nile Red cellular uptake, HeLa; type: cell-based, human
Procedure: Murine dendritic cells JAWSII (ATCC® CRL-11904™) were grown in RPMI-1640 medium (HyClone, Logan UT) supplemented with 8% FBS (Gibco, Grand Island NY), 100 units/ml penicillin/streptomycin (HyClone, Logan UT) and 5 ng/mL of GM-CSF (Invitrogen, Frederick MD) at 37° C. and 5% CO2. Once confluent, cells were collected using 0.25% Trypsin-EDTA (Gibco, Grand Island NY). Murine macrophage cells J774A.1 (ATCC® TIB-67™) and human malignant cells HeLa (ATCC® CCL-2™; Cederlane, Burlington, ON, Canada) were grown […] (DMEM) high glucose (HyClone, Logan, UT) supplemented with 10% FBS and 100 units/ml penicillin/streptomycin at 37° C. and 5% CO2. Once confluent, cells were collected using a cell scraper. Viability was assessed prior to experiments by Trypan Blue (Gibco, Grand Island NY) exclusion where the viability was >90%. Cells were seeded at 3×10^5 cells in 300 μL in a 96 multi-well plate and left untreated or were treated with 10 μg/mL of empty liposomes MG12d or MGC12, 1 μg/mL of Nile Red (Sigma, St-Louis MO), or 1 μg/mL of Nile Red encapsulated in 10 μg/mL of MG12d or MGC12. […] Mean fluorescence intensity was analysed using the Cytomics FC-500 flow cytometer (Beckman Coulter, Fullerton CA) using the FL3 channel where […] were measured. Data was analyzed using the CXP Analysis Software. […]

Compound	Polydispersity Index (PDI) [1]	Diameter (nm) [1]	other results
6-bis(tetradecyloxy)benzamido-N-hexyl α-D-mannopyranoside [12d]	0.040	286 ^a nm	
CCCCCCCCOc1ccc(C(=O)NCCCCCCO[C@H]2O[C@H](CO)[C@@H](O)[C@H](O)[C@@H]2O)cc1OCCCCCCCC [12a, 6-Bis(octacyloxy)benzamido-N-hexyl α-D-mannopyranoside]	0.178	300^a nm	
CCCCCCCCCCCCOc1ccc(C(=O)NCCCCCCO[C@H]2O[C@H](CO)[C@@H](O)[C@H](O)[C@@H]2O)cc1OCCCCCCCCCCCC [12c, 6-Bis(dodecyloxy)benzamido-N-hexyl α-D-mannopyranoside]	0.202	267 ^a nm	
CC[C@H](C)[C@H](NC(=O)[C@H](CCCN=C(N)N)NC(=O)[C@H](CCCN=C(N)N)NC(=O)[C@H](CC(C)C)NC(=O)[C@H](Cc1ccccc1)NC(=O)CNC(=O)CNC(=O)[C@@H](C)Cc1c(C)cc(O)cc1C)C(=O)N[C@@H](CCCN=C(N)N)C(=O)N1CCC[C@H]1C(=O)N[C@@H](CCCCN)C(N)=O [Dynantin]			Brain (%), percentage of total dose recovered ([2]; brain): 8.15 ± 3.06%; Dynantin levels in the brain ([2]; brain): detectable levels; Lung (%), percentage of total dose recovered ([2]; lung): 4.93 ± 0.89%; Sera (%), percentage of total dose recovered ([2]; sera): 21.66 ± 3.99%
CCN(CC)c1ccc2nc3c4ccccc4c(=O)cc-3oc2c1 [Nile Red]			Nile Red uptake / staining [3]: no staining
